Like-named read-outs stand apart in the source and are kept apart here.
Legend:
[1] = test system: UK B.1.1.7 N501Y Alpha SARS-CoV-2; format: cell-based; settings: read-out: EC50 α strain
[2] = test system: Brazil P.1 Gamma mutant SARS-CoV-2; format: cell-based; settings: read-out: EC50 γ strain
RBD/ACE2 interaction [3] = molecular target: T1, RBD/ACE2 interaction (UniProt P0DTC2+Q9BYF1, L452R/T478K); settings: read-out: IC50 RBD/ACE2
RBD/ACE2 interaction [4] = molecular target: T1, RBD/ACE2 interaction; test: cell-based

O=C(O[C@@H]1Cc2c(O)cc(O)cc2O[C@@H]1c1cc(O)c(=O)c2c(O)c(O)cc([C@H]3Oc4cc(O)cc(O)c4C[C@H]3OC(=O)c3cc(O)c(O)c(O)c3)c2c1)c1cc(O)c(O)c(O)c1 [TF3, theaflavin-3,3′-digallate]
EC50 [1]: 500 nM | EC50 [2]: 400 ± 200 nM

proanthocyanidin
IC50 (RBD/ACE2 interaction [3]): 12.4 ± 1.1 µM

O=c1c(O)cc([C@H]2Oc3cc(O)cc(O)c3C[C@H]2O)cc2c([C@H]3Oc4cc(O)cc(O)c4C[C@H]3O)cc(O)c(O)c12 [theaflavin]
IC50 (RBD/ACE2 interaction [4]): 12.3 ± 1.1 µM

From publication PMC11154727, “Systematic Studies on the Anti-SARS-CoV-2 Mechanisms of Tea Polyphenol-Related Natural Products” (ACS Omega, 2024)
